Experimental data from patent US20250154169A1, “COMPOUNDS AND METHODS FOR MODULATING SPLICING” (REMIX THERAPEUTICS INC., priority 2021, published 2025).
Values joined by “and” are separate entries in the source; they are usually repeats but may differ in a detail not shown here. Equal entries are not always repeated. Where two headings read alike, the source gives them in different places.

Legend:
[1] = system: Target C mRNA; assay: Splicing RT-qPCR gene panel, Target C canonical junction (CJ) mRNA; assay type: cell-based, human; details: Homo sapiens, Tables 4A/4B, read-out: Target C (IC50, decrease in CJ mRNA, gene panel)
In short: (§1)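 A673 or K562 cells treated 24 h at 37° C. with an 11-point 3-fold dilution series (top 10 uM, ≤0.25% DMSO). Lysates analysed by one-step RT-qPCR for canonical exon-exon junction transcripts, normalized to GAPDH, GUSB or PPIA and DMSO control (2^(−ΔΔCt)), then converted to percentage response.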

[2] = system: HTT mRNA; assay: Splicing RT-qPCR gene panel, HTT canonical junction (CJ) mRNA; assay type: cell-based, human; details: Homo sapiens, Tables 4A/4B, read-out: HTT (IC50, decrease in CJ mRNA, gene panel)
In short: as §1

[3] = system: MYB; assay: Protein abundance, HiBit-assay system (Promega), MYB; assay type: cell-based; details: Table 6; HiBiT-modified K562 cells, 24 hours
From the text: In some embodiments, a compound of Formula (I) or (II) or a pharmaceutically acceptable salt thereof, e.g., as described herein, modulates the expression of a target protein (e.g., HTT or MYB) in a reference cell or sample. In an embodiment, a compound of Formula (I) or (II) or a pharmaceutically acceptable salt thereof, e.g., as described herein, increases the expression of a target protein (e.g., HTT or MYB) in a reference cell or sample. In an embodiment, a compound of Formula (I) or (II) or a pharmaceutically acceptable salt thereof, e.g., as described herein, decreases the expression of a target protein (e.g., HTT or MYB) in a reference cell or sample. The effect of an exemplary compound of Formula (I) or (II) on protein abundance may be measured using a standard assay for measuring protein abundance, such as the HiBit-assay system (Promega). In this assay, percent response for each respective cell line may be as calculated at each compound concentration as follows: % response=100*(S−PC)/(NC−PC). For the normalized response at each concentration, a four-parameter logistical regression may be fit to the data and the response may be interpolated at the 50% value to determine a concentration for protein abundance at 50% (IC50) an untreated control. In an embodiment, a compound of Formula (I) or (II) or a pharmaceutically acceptable salt thereof, e.g., as described herein, has a protein abundance response less than 100 nM. In an embodiment, a compound of Formula (I) or (II) or a pharmaceutically acceptable salt thereof, e.g., as described herein, has a protein abundance response between 100-1000 nM. In an embodiment, a compound of Formula (I) or (II) or a pharmaceutically acceptable salt thereof, e.g., as described herein, has a protein abundance response greater than 1000 nM. In an embodiment, a compound of Formula (I) or (II) or a pharmaceutically acceptable salt thereof, e.g., as described herein, has a protein abundance response greater than 10 uM. In an embodiment, a compound of Formula (I) or (II) or a pharmaceutically acceptable salt thereof, e.g., as described herein, modulates the protein abundance of a target protein by about 1%, 5%, 10%, 15%, 20%, 25%, 30%, 35%, 40%, 45%, 50%, 55%, 60%, 65%, 70%, 75%, 80%, 85%, 90%, 95%, 99% or more, e.g., compared with a reference compound.

[4] = system: K562 cells; assay: Cell Titer Glo 2.0 cell viability assay, K562; assay type: cell-based; details: Homo sapiens, 72 hours incubation
Method: Compounds described herein were screened for toxicity in K562 (human chronic myelogenous leukemia) and SH-SY5Y (human neuroblastoma) cells using a Cell Titer Glo 2.0 assay.
• Promega CellTiter-Glo® 2.0 Cell Viability Assay (cat #G9241) • Corning 384-well TC-treated microplates (cat #3570)
Cells were plated at 500 cells/well (K562 cells) in 45 μL of IMDM supplemented with 10% FBS in a 384-well opaque plate. Wells containing only medium were used as a blank control. Test compounds (e.g., compounds of Formula (I) or (II)) were first serially diluted in DMSO then diluted 1:100 with EIDM+10% FBS. The final concentration of DMSO was 0.1% in each well. The cells were incubated for 72 hours at 37° C. and 5% CO2 before assaying with Cell Titer Glo 2.0 reagent.

[5] = system: MYB mRNA; assay: Splicing RT-qPCR assay, MYB canonical (CJ) and alternative (AJ) junction mRNA; assay type: cell-based, human; details: Homo sapiens
In short: (§2)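 One-step RT-qPCR on cell lysates, CJ and AJ isoforms quantified; housekeeping normalization GAPDH/GUSB (K562) or PPIA (A673). Cells: A673 in DMEM/10% FBS or K562 in IMDM/10% FBS. Compounds 11-pt 3-fold, top 10 uM, 24 h, 37 °C, 5% CO2.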

[6] = system: SMN2 mRNA; assay: Splicing RT-qPCR gene panel, SMN2 canonical junction (CJ) mRNA; assay type: cell-based, human; details: Homo sapiens, Tables 4A/4B, read-out: SMN2 (IC50, decrease in CJ mRNA, gene panel)
In short: as §1

[7] = system: HTT mRNA; assay: Splicing RT-qPCR assay, HTT canonical (CJ) and alternative (AJ) junction mRNA; assay type: cell-based, human; details: Homo sapiens
In short: as §2

[8] = Tables 4A/4B, canonical junction qPCR panel, read-out: MYB (IC50, decrease in CJ mRNA, gene panel)
[9] = Table 3B, canonical junction mRNA, RT-qPCR, read-out: MYB CJ (IC50, decrease in CJ mRNA)
[10] = Table 3B, alternative junction mRNA, RT-qPCR, read-out: MYB AJ (AC50, increase in AJ mRNA)
[11] = Table 3B, alternative junction mRNA, read-out: HTT AJ (AC50, increase in AJ mRNA)
[12] = Table 3B, canonical junction mRNA, read-out: HTT CJ (IC50, decrease in CJ mRNA)

Row | IC50 [1] [nM] | IC50 [2] [nM] | IC50 [3] | IC50 [5, 8] [nM] | IC50 [6] [nM] | IC50 [5, 9] [nM] | IC50 [7, 12] [nM] | SMILES | GI50 [4] [nM] | AC50 ([5]; 24 h, A673 or K562 cells, 24 hours compound treatment, RT-qPCR, read-out: MYB AJ (AC50, increase in alternative junction mRNA)) [nM] | IC50 ([5]; 24 h, A673 or K562 cells, 24 hours compound treatment, RT-qPCR, read-out: MYB CJ (IC50, decrease in canonical junction mRNA)) [nM] | IC50 ([7]; 24 h, A673 or K562 cells, 24 hours compound treatment, read-out: HTT CJ (IC50, decrease in canonical junction mRNA)) [nM] | AC50 ([7]; A673 or K562 cells, 24 hours compound treatment, read-out: HTT AJ (AC50, increase in alternative junction mRNA)) [nM] | AC50 [5, 10] [nM] | AC50 [7, 11] [nM]
1 | 1000 to 10000 | 1000 to 10000 | – | < 100 | < 100 | < 100 | 1000 to 10000 | Cc1cn2cc(NC(=O)c3ccc(N4CC[C@@H](NC5CC5)C4)c4csnc34)cc(F)c2n1 [Compound 973] | – | – | – | – | – | < 100 | 1000 to 10000
2 | 100 to 1000 | 100 to 1000 | – | < 100 | < 100 | < 100 | 100 to 1000 | Cc1cn2cc(NC(=O)c3ccc(N4CCC(NC5CC5)CC4)c4csnc34)cc(F)c2n1 [Compound 974] | – | – | – | – | – | < 100 | 100 to 1000
3 | 1000 to 10000 | 100 to 1000 | – | < 100 | < 100 | < 100 | 100 to 1000 | Cc1cn2cc(NC(=O)c3c(F)cc(N4CC[C@@H](NC5CCC5)C4)c4csnc34)cc(F)c2n1 [Compound 976] | – | – | – | – | – | < 100 | 1000 to 10000
4 | 1000 to 10000 | 100 to 1000 | – | < 100 | < 100 | < 100 | 100 to 1000 | Cc1cn2cc(NC(=O)c3ccc(N4C[C@@H](C)N[C@@H](C)C4)c4nsnc34)cc(F)c2n1 [Compound 978] | – | – | – | – | – | < 100 | 100 to 1000
5 | 1000 to 10000 | 100 to 1000 | – | < 100 | < 100 | < 100 | 100 to 1000 | Cc1cn2cc(NC(=O)c3ccc(N4CCC(N(C)C)CC4)c4csnc34)cc(F)c2n1 [Compound 979] | – | – | – | – | – | < 100 | 100 to 1000

Further lines, the molecule ahead of its results:

Row | SMILES | IC50 [1] [nM] | IC50 [2] [nM] | IC50 [3] | IC50 [5, 8] [nM] | IC50 [6] [nM] | IC50 [5, 9] [nM] | IC50 [7, 12] [nM] | GI50 [4] [nM] | AC50 ([5]; 24 h, A673 or K562 cells, 24 hours compound treatment, RT-qPCR, read-out: MYB AJ (AC50, increase in alternative junction mRNA)) [nM] | IC50 ([5]; 24 h, A673 or K562 cells, 24 hours compound treatment, RT-qPCR, read-out: MYB CJ (IC50, decrease in canonical junction mRNA)) [nM] | IC50 ([7]; 24 h, A673 or K562 cells, 24 hours compound treatment, read-out: HTT CJ (IC50, decrease in canonical junction mRNA)) [nM] | AC50 ([7]; A673 or K562 cells, 24 hours compound treatment, read-out: HTT AJ (AC50, increase in alternative junction mRNA)) [nM] | AC50 [5, 10] [nM] | AC50 [7, 11] [nM]
6 | Cc1cn2cc(NC(=O)c3ccc(C4CCNCC4)c4oc(C)nc34)cc(F)c2n1 [Compound 187] | 1000 to 10000 | 100 to 1000 | 100 to 1000 nM and < 100 nM | 100 to 1000 | < 100 | – | – | 100 to 1000 | – | – | – | – | – | –
7 | Cc1cn2cc(NC(=O)c3ccc(N(C)C4CCN(C)CC4)c4cc(C)oc34)cc(F)c2n1 [Compound 200] | 1000 to 10000 | 1000 to 10000 | – | 1000 to 10000 | < 100 | – | – | 1000 to 10000 | 1000 to 10000 | 1000 to 10000 | 1000 to 10000 | 1000 to 10000 | – | –
8 | Cc1cn2cc(NC(=O)c3ccc(N4CC[C@@H](NC5CC5)C4)c4cc(C)nn34)cc(F)c2n1 [Compound 963] | > 10000 | 1000 to 10000 | – | 100 to 1000 | < 100 | 100 to 1000 | 1000 to 10000 | – | – | – | – | – | 100 to 1000 | 1000 to 10000
9 | Cc1cn2cc(NC(=O)c3ccc(N4CC[C@@H](NC5CC5)C4)n4cc(C)nc34)cc(F)c2n1 [Compound 965] | 100 to 1000 | < 100 | – | < 100 | < 100 | < 100 | < 100 | – | – | – | – | – | < 100 | < 100
10 | Cc1cn2cc(NC(=O)c3cnc(N4CCC(NC5CC5)C4)c4cn(C)nc34)cc(F)c2n1 (stereo not shown) [Compound 966] | < 100 | < 100 | – | < 100 | < 100 | < 100 | < 100 | – | – | – | – | – | < 100 | < 100
11 | COc1c(NC(=O)c2ccc(N3CC[C@@H](NC4CC4)C3)c3nc(C)nn23)cn2cc(C)nc2c1F [Compound 968] | 1000 to 10000 | 100 to 1000 | – | < 100 | < 100 | < 100 | 100 to 1000 | – | – | – | – | – | 100 to 1000 | 1000 to 10000
12 | CCn1cc2c(N3CCC(N)(CC)CC3)ncc(C(=O)Nc3cc(F)c4nc(C)cn4c3)c2n1 [Compound 969] | 1000 to 10000 | 1000 to 10000 | – | < 100 | < 100 | < 100 | 1000 to 10000 | – | – | – | – | – | < 100 | > 10000
13 | Cc1cn2cc(NC(=O)c3ccc(N4C[C@@H](C)N[C@@H](C)C4)c4csnc34)cc(F)c2n1 [Compound 971] | 100 to 1000 | 100 to 1000 | – | < 100 | < 100 | < 100 | 100 to 1000 | – | – | – | – | – | < 100 | 100 to 1000
